Counter-ions that a name gives are not always drawn.
Key:
PI3Kγ = PI3Kγ (Homo sapiens, UniProt P48736); experiment: PI3K-gamma fluorescence polarization assay; assay type: biochemical; settings: read-out: PI3Kγ Median IC50
mTOR = mTOR (Homo sapiens, UniProt P42345); experiment: mTOR enzyme assay (DELFIA format, His6-S6K substrate); assay type: biochemical; settings: read-out: mTOR Kinase Median IC50
PI3Kα = PI3Kα (Homo sapiens, UniProt P42336); experiment: PI3K-alpha fluorescence polarization assay; assay type: biochemical; settings: read-out: PI3Kα Median IC50
Sequence of PI3Kα (P42336 whole entry, species assumed): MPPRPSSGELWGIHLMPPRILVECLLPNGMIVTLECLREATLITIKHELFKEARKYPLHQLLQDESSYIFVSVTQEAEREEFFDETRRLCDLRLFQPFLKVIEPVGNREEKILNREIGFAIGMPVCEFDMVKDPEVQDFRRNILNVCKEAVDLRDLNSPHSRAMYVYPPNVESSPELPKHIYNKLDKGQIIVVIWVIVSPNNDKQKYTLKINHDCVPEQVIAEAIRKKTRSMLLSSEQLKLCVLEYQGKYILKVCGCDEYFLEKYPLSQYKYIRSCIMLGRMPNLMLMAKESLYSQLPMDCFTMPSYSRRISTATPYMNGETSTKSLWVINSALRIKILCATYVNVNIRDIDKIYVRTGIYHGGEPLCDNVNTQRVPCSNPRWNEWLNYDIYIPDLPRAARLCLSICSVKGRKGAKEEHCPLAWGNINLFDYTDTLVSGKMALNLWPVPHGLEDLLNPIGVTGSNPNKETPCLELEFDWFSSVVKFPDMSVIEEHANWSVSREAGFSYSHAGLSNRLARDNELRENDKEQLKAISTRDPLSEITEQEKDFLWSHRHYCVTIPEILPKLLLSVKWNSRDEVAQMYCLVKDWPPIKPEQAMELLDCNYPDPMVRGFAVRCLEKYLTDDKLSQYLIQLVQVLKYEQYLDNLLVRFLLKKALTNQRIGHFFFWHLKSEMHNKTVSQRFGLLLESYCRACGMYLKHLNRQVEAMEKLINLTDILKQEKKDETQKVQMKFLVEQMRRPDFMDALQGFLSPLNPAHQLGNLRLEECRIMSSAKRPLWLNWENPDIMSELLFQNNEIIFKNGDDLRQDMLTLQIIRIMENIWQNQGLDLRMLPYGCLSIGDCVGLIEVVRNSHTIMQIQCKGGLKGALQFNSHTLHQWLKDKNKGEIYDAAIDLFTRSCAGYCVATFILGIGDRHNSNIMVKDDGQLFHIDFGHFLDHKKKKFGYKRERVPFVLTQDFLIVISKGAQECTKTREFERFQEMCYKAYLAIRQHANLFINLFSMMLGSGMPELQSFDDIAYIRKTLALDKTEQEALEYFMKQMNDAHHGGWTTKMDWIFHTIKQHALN
Sequence of PI3Kα (P27986 whole entry partner, species assumed): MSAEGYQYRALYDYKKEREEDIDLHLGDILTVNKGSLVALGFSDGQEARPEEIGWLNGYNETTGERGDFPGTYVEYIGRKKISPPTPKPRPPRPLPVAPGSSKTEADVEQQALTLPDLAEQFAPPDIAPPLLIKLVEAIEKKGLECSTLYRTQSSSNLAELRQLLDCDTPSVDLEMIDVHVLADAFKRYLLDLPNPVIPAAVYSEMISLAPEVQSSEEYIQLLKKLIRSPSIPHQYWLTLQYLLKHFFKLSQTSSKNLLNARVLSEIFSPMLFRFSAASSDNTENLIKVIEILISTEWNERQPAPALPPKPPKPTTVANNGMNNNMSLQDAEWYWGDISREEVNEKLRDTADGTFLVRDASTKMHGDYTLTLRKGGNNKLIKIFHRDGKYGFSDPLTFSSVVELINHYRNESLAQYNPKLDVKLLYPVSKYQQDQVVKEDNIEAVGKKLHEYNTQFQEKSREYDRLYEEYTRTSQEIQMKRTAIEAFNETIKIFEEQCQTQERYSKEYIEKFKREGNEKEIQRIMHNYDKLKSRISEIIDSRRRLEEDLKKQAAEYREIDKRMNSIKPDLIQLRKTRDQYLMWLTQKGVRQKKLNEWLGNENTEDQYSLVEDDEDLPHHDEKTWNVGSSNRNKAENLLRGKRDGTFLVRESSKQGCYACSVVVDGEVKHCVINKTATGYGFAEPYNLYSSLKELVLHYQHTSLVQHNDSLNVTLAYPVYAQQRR

Sequence of PI3Kγ (P48736 whole entry, species assumed): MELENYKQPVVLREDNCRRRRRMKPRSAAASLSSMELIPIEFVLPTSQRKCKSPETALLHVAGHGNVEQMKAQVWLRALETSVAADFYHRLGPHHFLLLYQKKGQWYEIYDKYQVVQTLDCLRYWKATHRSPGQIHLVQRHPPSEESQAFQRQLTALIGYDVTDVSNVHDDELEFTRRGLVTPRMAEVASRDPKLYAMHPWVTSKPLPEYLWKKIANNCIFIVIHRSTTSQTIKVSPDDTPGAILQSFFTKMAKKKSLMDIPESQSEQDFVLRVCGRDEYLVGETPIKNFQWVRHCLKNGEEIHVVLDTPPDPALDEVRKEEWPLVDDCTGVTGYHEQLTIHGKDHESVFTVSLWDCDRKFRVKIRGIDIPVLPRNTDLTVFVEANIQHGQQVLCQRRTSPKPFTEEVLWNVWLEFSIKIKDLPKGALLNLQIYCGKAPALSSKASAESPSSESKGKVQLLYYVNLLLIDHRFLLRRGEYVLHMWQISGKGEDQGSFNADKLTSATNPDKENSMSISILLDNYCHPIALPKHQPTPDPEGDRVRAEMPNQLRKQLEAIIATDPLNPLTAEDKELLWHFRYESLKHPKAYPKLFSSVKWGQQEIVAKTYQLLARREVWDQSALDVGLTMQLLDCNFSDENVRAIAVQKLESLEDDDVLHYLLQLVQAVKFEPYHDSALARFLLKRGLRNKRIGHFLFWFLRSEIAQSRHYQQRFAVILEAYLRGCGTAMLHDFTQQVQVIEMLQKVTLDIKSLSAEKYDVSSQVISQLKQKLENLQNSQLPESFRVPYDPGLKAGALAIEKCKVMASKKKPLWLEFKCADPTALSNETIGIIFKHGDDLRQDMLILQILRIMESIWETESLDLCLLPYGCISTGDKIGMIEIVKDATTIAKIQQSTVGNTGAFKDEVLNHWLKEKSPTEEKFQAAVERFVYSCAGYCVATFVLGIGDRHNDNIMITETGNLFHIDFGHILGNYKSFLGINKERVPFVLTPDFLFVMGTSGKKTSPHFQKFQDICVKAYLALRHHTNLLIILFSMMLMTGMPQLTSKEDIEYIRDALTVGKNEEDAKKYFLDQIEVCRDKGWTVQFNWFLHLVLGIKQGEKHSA

Compound: CCOC(=O)Nc1ccc2c(c1)C(=O)/C(=C/c1cn(C)c3nccc(N4CCC(C(=O)N(C)C)CC4)c13)O2 (as salt: Na) [Compound 171, ethyl[(2Z)-2-({4-[4-(dimethylcarbamoyl)piperidin-1-yl]-1-methyl-1H-pyrrolo[2,3-b]pyridin-3-yl}methylidene)-3-oxo-2,3-dihydro-1-benzofuran-5-yl]carbamate]
- melting point: 162 to 167 °C

Compound: Cn1cc(/C=C2\Oc3cc(O)ccc3C2=O)c2c(-c3ccccc3)ccnc21 [Compound 30, (2Z)-6-hydroxy-2-[(1-methyl-4-phenyl-1H-pyrrolo[2,3-b]pyridin-3-yl)methylene]-1-benzofuran-3(2H)-one]
- IC50 (PI3Kγ): 2.38 µM
- IC50 (mTOR): 0.019 µM
- melting point: 314 to 316 °C (dec.)
- IC50 (PI3Kα): 0.219 µM

Compound: Cn1cc(/C=C2\Oc3cccc(O)c3C2=O)c2c(-c3ccccc3)ccnc21 [Compound 31, (2Z)-4-hydroxy-2-[(1-methyl-4-phenyl-1H-pyrrolo[2,3-b]pyridin-3-yl)methylene]-1-benzofuran-3(2H)-one]
- IC50 (PI3Kγ): 0.187 µM
- IC50 (mTOR): 0.0035 µM
- melting point: 274 to 275 °C
- IC50 (PI3Kα): 0.089 µM

Compound: Cn1cc(/C=C2\Oc3cc(O)cc(F)c3C2=O)c2c(-c3ccccc3)ccnc21 [Compound 32, (2Z)-4-fluoro-6-hydroxy-2-[(1-methyl-4-phenyl-1H-pyrrolo[2,3-b]pyridin-3-yl)methylene]-1-benzofuran-3(2H)-one]
- IC50 (PI3Kγ): 1.05 µM
- IC50 (mTOR): 0.0465 µM
- melting point: 325 to 327 °C (dec.)
- IC50 (PI3Kα): 0.098 µM

Compound: Cn1cc(/C=C2\Oc3ccc(Br)cc3C2=O)c2c(-c3ccccc3)ccnc21 [Compound 37, (2Z)-5-bromo-2-[(1-methyl-4-phenyl-1H-pyrrolo[2,3-b]pyridin-3-yl)methylene]-1-benzofuran-3(2H)-one]
- IC50 (PI3Kγ): 4 µM
- IC50 (mTOR): > 4 µM
- melting point: 227 to 229 °C
- IC50 (PI3Kα): 6.86 µM

Compound: CNC(=O)Nc1ccc2c(c1)C(=O)/C(=C/c1cn(C)c3nccc(-c4ccccc4)c13)O2 [Compound 38, 1-methyl-3-{(2Z)-2-[(1-methyl-4-phenyl-1H-pyrrolo[2,3-b]pyridin-3-yl)methylene]-3-oxo-2,3-dihydro-1-benzofuran-5-yl}urea]
- IC50 (PI3Kγ): 1.57 µM
- IC50 (mTOR): 0.037 µM
- melting point: 265 to 270 °C (dec.)
- IC50 (PI3Kα): 0.234 µM

Compound: Cn1cc(/C=C2\Oc3cc(O)cc(O)c3C2=O)c2c(C#Cc3ccccc3)ccnc21 [Compound 39, (2Z)-4,6-dihydroxy-2-{[1-methyl-4-(phenylethynyl)-1H-pyrrolo[2,3-b]pyridin-3-yl]methylene}-1-benzofuran-3(2H)-one]
- IC50 (PI3Kγ): 0.104 µM
- IC50 (mTOR): 0.0057 µM
- melting point: 308 to 310 °C
- IC50 (PI3Kα): 0.106 µM

Compound: Cn1cc(/C=C2\Oc3cc(O)cc(O)c3C2=O)c2c(N3CCCCC3)ccnc21 [Compound 40, (2Z)-4,6-dihydroxy-2-[(1-methyl-4-piperidin-1-yl-1H-pyrrolo[2,3-b]pyridin-3-yl)methylene]-1-benzofuran-3(2H)-one]
- IC50 (PI3Kγ): 0.282 µM
- IC50 (mTOR): 0.0006 µM
- melting point: 322 to 324 °C
- IC50 (PI3Kα): 0.068 µM

Compound: Cn1cc(/C=C2\Oc3ccc(O)cc3C2=O)c2c(-c3ccccc3)ccnc21 [Compound 42, (2Z)-5-hydroxy-2-[(1-methyl-4-phenyl-1H-pyrrolo[2,3-b]pyridin-3-yl)methylene]-1-benzofuran-3(2H)-one]
- IC50 (PI3Kγ): > 10 µM
- IC50 (mTOR): 0.0225 µM
- melting point: 352 to 354 °C (dec.)
- IC50 (PI3Kα): 0.129 µM

Compound: Cn1cc(/C=C2\Oc3cc(O)cc(O)c3C2=O)c2c(N3CCCC3)ccnc21 [Compound 46, (2Z)-4,6-dihydroxy-2-[(1-methyl-4-pyrrolidin-1-yl-1H-pyrrolo[2,3-b]pyridin-3-yl)methylene]-1-benzofuran-3(2H)-one]
- IC50 (PI3Kγ): 0.24 µM
- IC50 (mTOR): 0.0016 µM
- melting point: 312 to 315 °C
- IC50 (PI3Kα): 0.059 µM

Compound: Cn1cc(/C=C2\Oc3ccc(N)cc3C2=O)c2c(-c3ccccc3)ccnc21 [Compound 58, (2Z)-5-amino-2-[(1-methyl-4-phenyl-1H-pyrrolo[2,3-b]pyridin-3-yl)methylene]-1-benzofuran-3(2H)-one]
- IC50 (PI3Kγ): 0.966 µM
- IC50 (mTOR): 0.0165 µM
- melting point: 232 to 239 °C
- IC50 (PI3Kα): 0.199 µM

Compound: Cn1cc(/C=C2\Oc3ccc(NC(=O)OCCO)cc3C2=O)c2c(-c3ccccc3)ccnc21 [Compound 60, 2-hydroxyethyl {(2Z)-2-[(1-methyl-4-phenyl-1H-pyrrolo[2,3-b]pyridin-3-yl)methylene]-3-oxo-2,3-dihydro-1-benzofuran-5-yl}carbamate]
- IC50 (PI3Kγ): > 10 µM
- IC50 (mTOR): 0.0585 µM
- melting point: 233 to 235 °C
- IC50 (PI3Kα): > 10 µM

Compound: Cn1cc(/C=C2\Oc3cc(O)cc(O)c3C2=O)c2c(-c3cncnc3)ccnc21 [Compound 62, (2Z)-4,6-dihydroxy-2-[(1-methyl-4-pyrimidin-5-yl-1H-pyrrolo[2,3-b]pyridin-3-yl)methylene]-1-benzofuran-3(2H)-one]
- IC50 (mTOR): 0.0043 µM
- melting point: 340 °C

Compound: Cn1cc(/C=C2\Oc3cc(O)cc(O)c3C2=O)c2c(-c3ccc(Cl)nc3)ccnc21 [Compound 63, (2Z)-2-{[4-(6-chloropyridin-3-yl)-1-methyl-1H-pyrrolo[2,3-b]pyridin-3-yl]methylene}-4,6-dihydroxy-1-benzofuran-3(2H)-one]
- IC50 (PI3Kγ): 0.024 µM
- IC50 (mTOR): 0.0015 µM
- melting point: 340 °C
- IC50 (PI3Kα): 0.008 µM

Compound: Cn1cc(/C=C2\Oc3cc(O)cc(O)c3C2=O)c2c(-c3ccc(Cl)cc3)ccnc21 [Compound 64, (2Z)-2-{[4-(4-chlorophenyl)-1-methyl-1H-pyrrolo[2,3-b]pyridin-3-yl]methylene}-4,6-dihydroxy-1-benzofuran-3(2H)-one]
- IC50 (PI3Kγ): 0.081 µM
- IC50 (mTOR): 0.0018 µM
- melting point: 345 °C
- IC50 (PI3Kα): 0.029 µM

Compound: Cn1cc(/C=C2\Oc3cc(O)cc(O)c3C2=O)c2c(N3CCCCCC3)ccnc21 [Compound 65, (2Z)-2-[(4-azepan-1-yl-1-methyl-1H-pyrrolo[2,3-b]pyridin-3-yl)methylene]-4,6-dihydroxy-1-benzofuran-3(2H)-one]
- IC50 (PI3Kγ): 0.06 µM
- IC50 (mTOR): 0.0006 µM
- melting point: 297 to 300 °C
- IC50 (PI3Kα): 0.041 µM

Compound: COc1cccc(-c2ccnc3c2c(/C=C2\Oc4cc(O)cc(O)c4C2=O)cn3C)c1 [Compound 66, (2Z)-4,6-dihydroxy-2-{[4-(3-methoxyphenyl)-1-methyl-1H-pyrrolo[2,3-b]pyridin-3-yl]methylene}-1-benzofuran-3(2H)-one]
- IC50 (PI3Kγ): 0.061 µM
- IC50 (mTOR): 0.0014 µM
- melting point: 297 to 300 °C
- IC50 (PI3Kα): 0.032 µM

Compound: Cn1cc(/C=C2\Oc3cc(O)cc(O)c3C2=O)c2c(-c3ccc(CO)cc3)ccnc21 [Compound 67, (2Z)-4,6-dihydroxy-2-({4-[4-(hydroxymethyl)phenyl]-1-methyl-1H-pyrrolo[2,3-b]pyridin-3-yl}methylene)-1-benzofuran-3(2H)-one]
- IC50 (PI3Kγ): 0.021 µM
- IC50 (mTOR): 0.0002 µM
- melting point: > 330 °C
- IC50 (PI3Kα): 0.007 µM

Compound: CN1CC2CC1CN2c1ccnc2c1c(/C=C1\Oc3cccc(O)c3C1=O)cn2C (stereo not shown) [Compound 153, (2Z)-4-hydroxy-2-{[1-methyl-4-(5-methyl-2,5-diazabicyclo[2.2.1]hept-2-yl)-1H-pyrrolo[2,3-b]pyridin-3-yl]methylidene}-1-benzofuran-3(2H)-one]
- IC50 (PI3Kγ): 0.148 µM
- IC50 (mTOR): 0.016 µM
- melting point: 220 °C (dec.)

Compound: CN(C)C(=O)C1CCN(c2ccnc3c2c(/C=C2\Oc4ccc(NC(=O)C(F)(F)F)cc4C2=O)cn3C)CC1 [Compound 163, N,N-dimethyl-1-{1-methyl-3-[(Z)-{3-oxo-5-[(trifluoroacetyl)amino]-1-benzofuran-2(3H)-ylidene}methyl]-1H-pyrrolo[2,3-b]pyridin-4-yl}piperidine-4-carboxamide]
- IC50 (PI3Kγ): > 10 µM
- melting point: 236 to 240 °C
- IC50 (PI3Kα): 5.64 µM

Compound: Cn1cc(/C=C2\Oc3ccc(NC(=O)Nc4cccnc4)cc3C2=O)c2c(C3=CCOCC3)ccnc21 [Compound 294, 1-[(2Z)-2-{[4-(3,6-dihydro-2H-pyran-4-yl)-1-methyl-1H-pyrrolo[2,3-b]pyridin-3-yl]methylidene}-3-oxo-2,3-dihydro-1-benzofuran-5-yl]-3-pyridin-3-ylurea]
- IC50 (PI3Kγ): > 10 µM
- IC50 (mTOR): 0.0275 µM
- IC50 (PI3Kα): 2.08 µM

Compound: Cn1cc(/C=C2\Oc3ccc(NC(=O)Nc4ccc(F)nc4)cc3C2=O)c2c(N3CC4CCC(C3)O4)ccnc21 [Compound 298, 1-(6-fluoropyridin-3-yl)-3-[(2Z)-2-{[1-methyl-4-(8-oxa-3-azabicyclo[3.2.1]oct-3-yl)-1H-pyrrolo[2,3-b]pyridin-3-yl]methylidene}-3-oxo-2,3-dihydro-1-benzofuran-5-yl]urea]
- IC50 (PI3Kγ): 2.12 µM
- IC50 (mTOR): 0.026 µM
- IC50 (PI3Kα): 0.274 µM

Compound: CN(C)C(=O)C1CCN(c2ccnc3c2c(/C=C2\Oc4ccc(NC(=O)NC5CCN(C(=O)C(F)(F)F)CC5)cc4C2=O)cn3C)CC1 [Compound 300, N,N-dimethyl-1-(1-methyl-3-{(Z)-[3-oxo-5-({[1-(trifluoroacetyl)piperidin-4-yl]carbamoyl}amino)-1-benzofuran-2(3H)-ylidene]methyl}-1H-pyrrolo[2,3-b]pyridin-4-yl)piperidine-4-carboxamide]
- IC50 (PI3Kγ): 3.54 µM
- IC50 (mTOR): 0.105 µM
- IC50 (PI3Kα): 0.736 µM

Compound: (2Z)-2-({4-[4-(5,6-dihydro-4H-1,3-oxazin-2-yl)phenyl]-1-methyl-1H-pyrrolo[2,3- b]pyridin-3-yl}methylidene)-4-hydroxy-1-benzofuran-3(2H)-one [Compound 22]
- IC50 (PI3Kγ): 0.276 µM
- IC50 (mTOR): 0.0046 µM
- IC50 (PI3Kα): 0.109 µM

Compound: (2Z)-4-hydroxy-2-{[1-methyl-4-(1H-pyrrol-2-yl)-1H-pyrrolo[2,3-b]pyridin-3-yl]methylidene}-1-benzofuran-3(2H)-one [Compound 23]
- IC50 (PI3Kγ): 2.09 µM
- IC50 (mTOR): 0.0505 µM
- IC50 (PI3Kα): 0.381 µM

Source: patent US20090298820A1, “3-SUBSTITUTED-1H-PYRROLO[2,3-B]PYRIDINE AND 3-SUBSTITUTED-1H-PYRROLO[3,2-B]PYRIDINE COMPOUNDS, THEIR USE AS MTOR KINASE AND PI3 KINASE INHIBITORS, AND THEIR SYNTHESES” (Wyeth, priority 2008, published 2009)
